Data reported in US20240109903A1, “SUBSTITUTED HETEROCYCLES FOR TREATING CANCER” (Northwestern University, priority 2022, published 2024).
Where two headings read alike, the source gives them in different places.

Assays:
SF-268 = assay: NCI 60 five-dose screen SF-268; assay type: cell-based; settings: Homo sapiens; for CC50: read-out: LC50 (the source's name) (converted)
HCT-116 = assay: NCI 60 five-dose screen HCT-116; assay type: cell-based; settings: Homo sapiens; for CC50: read-out: LC50 (the source's name) (converted)
full NCI 60 cell panel = assay: NCI 60 Cell One-dose screen; assay type: cell-based, human; settings: single high dose 10^−5 M, NCI 60 panel
From the text: Compounds were submitted to the NCI 60 Cell screen and tested at a single high dose (10^−5 M) in the full NCI 60 cell panel (see the following reference for details of using NCI 60 human tumor cell lines for screening anticancer drugs: Shoemaker R H. The NCI60 human tumor cell line anticancer drug screen. Nature Rev Cancer 2006; 6: 813-23). The One-dose data is reported as a mean graph of the percent growth of treated cells. The number reported for the One-dose assay is growth relative to the no-drug control, and relative to the time zero number of cells. This allows detection of both growth inhibition (values between 0 and 100) and lethality (values less than 0). For example, a value of 100 means no growth inhibition. A value of 40 would mean 60% growth inhibition. A value of 0 means no net growth over the course of the experiment. A value of −40 would mean 40% lethality. A value of −100 means all cells are dead. FIGS. 1-8 show the mean graph of percent growth against the NCI-60 cell panel for NUCC-0226674, NUCC-0226679, NUCC-0226680, NUCC-0226683, NUCC-0226689, NUCC-0226694, NUCC-0226695, and NUCC-0226698.

SNB-75 = assay: NCI 60 five-dose screen SNB-75; assay type: cell-based; settings: Homo sapiens; for CC50: read-out: LC50 (the source's name) (converted)
OVCAR-8 = assay: NCI 60 five-dose screen OVCAR-8; assay type: cell-based; settings: Homo sapiens; for CC50: read-out: LC50 (the source's name) (converted)
OVCAR-5 = assay: NCI 60 five-dose screen OVCAR-5; assay type: cell-based; settings: Homo sapiens; for CC50: read-out: LC50 (the source's name) (converted)
DU-145 = assay: NCI 60 five-dose screen DU-145; assay type: cell-based; settings: Homo sapiens; for CC50: read-out: LC50 (the source's name) (converted)
HT29 = assay: NCI 60 five-dose screen HT29; assay type: cell-based; settings: Homo sapiens
RXF 393 = assay: NCI 60 five-dose screen RXF 393; assay type: cell-based; settings: Homo sapiens; for CC50: read-out: LC50 (the source's name) (converted)
SF-295 = assay: NCI 60 five-dose screen SF-295; assay type: cell-based; settings: Homo sapiens; for CC50: read-out: LC50 (the source's name) (converted)
SNB-19 = assay: NCI 60 five-dose screen SNB-19; assay type: cell-based; settings: Homo sapiens; for CC50: read-out: LC50 (the source's name) (converted)
EKVX = assay: NCI 60 five-dose screen EKVX; assay type: cell-based; settings: Homo sapiens; for CC50: read-out: LC50 (the source's name) (converted)
UACC-257 = assay: NCI 60 five-dose screen UACC-257; assay type: cell-based; settings: Homo sapiens; for CC50: read-out: LC50 (the source's name) (converted)
UACC-62 = assay: NCI 60 five-dose screen UACC-62; assay type: cell-based; settings: Homo sapiens; for CC50: read-out: LC50 (the source's name) (converted)
SK-MEL-2 = assay: NCI 60 five-dose screen SK-MEL-2; assay type: cell-based; settings: Homo sapiens; for CC50: read-out: LC50 (the source's name) (converted)
NCI/ADR-RES = assay: NCI 60 five-dose screen NCI/ADR-RES; assay type: cell-based; settings: Homo sapiens; for CC50: read-out: LC50 (the source's name) (converted)
SK-OV-3 = assay: NCI 60 five-dose screen SK-OV-3; assay type: cell-based; settings: Homo sapiens; for CC50: read-out: LC50 (the source's name) (converted)
KM12 = assay: NCI 60 five-dose screen KM12; assay type: cell-based; settings: Homo sapiens; for CC50: read-out: LC50 (the source's name) (converted)
PC-3 = assay: NCI 60 five-dose screen PC-3; assay type: cell-based; settings: Homo sapiens; for CC50: read-out: LC50 (the source's name) (converted)
[1] = system: MV-4-11 acute myeloid leukemia cells; assay: CellTiter-Glo 2.0 cell viability, MV-4-11; assay type: cell-based; settings: Homo sapiens
Description: 2019 October; 94(4): 1813-1823.
Cell viability was assessed using the CellTiter-Glo 2.0 assay from Promega, which yields a signal proportional to the amount of ATP present in a cell population. Compounds were first dispensed into empty 96-well flat-bottom tissue culture-treated plates (Corning) using an Echo550. MV4-1 cells were diluted to a density of 0.1 million cells per ml, pipetted onto the compounds at a density of 1,000 cells per well for U937 and 3,000 cells per well for MV4-11, mixed, and incubated for 3 days at 37° C. with 5% C02. After incubating, 5 μl of cells from each well were added to 5 μl of CellTiter-Glo 2.0 reagent in a384-well white ProxiPlate (PerkinElmer), incubated for 20 minutes at ambient temperature, and luminescence was analyzed on an EnSpire plate reader. Graphing and regression analysis was performed in Graphpad Prism.

[2] = MV4-11, 72 h, MV-4-11 cells, 3 days, CellTiter-Glo 2.0, read-out: IC50 (uM) [Cell Type: MV-4-11]
[3] = MV4-11, bound stated in text, read-out: IC50 against MV-4-11 acute myeloid leukemia cells

Fc1ccc(N2CC(Cn3c(C(F)(F)F)cc4c(Cl)ncnc43)C2)c(F)c1 [NUCC-0226695]
GI50 (SF-268): 3.16 µM
IC50 (SF-268): 5.62 µM
IC (TGI) (SF-268): 11.2 µM
CC50 (SF-268): 47.9 µM
GI50 (HCT-116): 1.91 µM
IC50 (HCT-116): 3.16 µM
IC (TGI) (HCT-116): 3.89 µM
CC50 (HCT-116): 7.94 µM
growth inhibition in the One-Dose Screen (full NCI 60 cell panel): significant growth inhibition
GI50 (SNB-75): 12 µM
IC50 (SNB-75): 25.1 µM
IC (TGI) (SNB-75): 24.5 µM
CC50 (SNB-75): 51.3 µM
GI50 (OVCAR-8): 2.14 µM
IC50 (OVCAR-8): 3.47 µM
IC (TGI) (OVCAR-8): 5.01 µM
CC50 (OVCAR-8): 19.1 µM
GI50 (OVCAR-5): 17.8 µM
IC50 (OVCAR-5): 32.4 µM
IC (TGI) (OVCAR-5): 37.2 µM
CC50 (OVCAR-5): 77.6 µM
GI50 (DU-145): 12.6 µM
IC50 (DU-145): 21.9 µM
IC (TGI) (DU-145): 25.7 µM
CC50 (DU-145): 52.5 µM
GI50 (HT29; HT-29): 3.47 µM
IC50 (HT29; HT-29): 4.27 µM
IC (TGI) (HT29; HT-29): 16.2 µM
CC50 (HT29; HT-29, read-out: LC50 (the source's name) (converted)): 97.7 µM
GI50 (RXF 393): 2.09 µM
IC50 (RXF 393): 5.37 µM
IC (TGI) (RXF 393): 5.01 µM
CC50 (RXF 393): 15.5 µM
GI50 (SF-295): 11.5 µM
IC50 (SF-295): 20 µM
IC (TGI) (SF-295): 24.5 µM
CC50 (SF-295): 52.5 µM
GI50 (SNB-19): 15.1 µM
IC50 (SNB-19): 27.5 µM
IC (TGI) (SNB-19): 28.8 µM
CC50 (SNB-19): 55 µM
GI50 (EKVX): 6.61 µM
IC50 (EKVX): 16.6 µM
IC (TGI) (EKVX): 20 µM
CC50 (EKVX): 46.8 µM
GI50 (UACC-257): 3.09 µM
IC50 (UACC-257): 6.46 µM
IC (TGI) (UACC-257): 12 µM
CC50 (UACC-257): 42.7 µM
GI50 (UACC-62): 3.16 µM
IC50 (UACC-62): 5.62 µM
IC (TGI) (UACC-62): 12.9 µM
CC50 (UACC-62): 36.3 µM
GI50 (SK-MEL-2): 15.8 µM
IC50 (SK-MEL-2): 31.6 µM
IC (TGI) (SK-MEL-2): 30.9 µM
CC50 (SK-MEL-2): 61.7 µM
GI50 (NCI/ADR-RES): 10.2 µM
IC50 (NCI/ADR-RES): 18.2 µM
IC (TGI) (NCI/ADR-RES): 26.3 µM
CC50 (NCI/ADR-RES): 69.2 µM
GI50 (SK-OV-3): 14.5 µM
IC50 (SK-OV-3): 28.8 µM
IC (TGI) (SK-OV-3): 29.5 µM
CC50 (SK-OV-3): 60.3 µM
GI50 (KM12): 16.2 µM
IC50 (KM12): 28.2 µM
IC (TGI) (KM12): 30.9 µM
CC50 (KM12): 60.3 µM
GI50 (PC-3): 3.09 µM
IC50 (PC-3): 4.27 µM
IC (TGI) (PC-3): 11 µM
CC50 (PC-3): 58.9 µM
IC50 [1, 2]: 0.739 µM
IC50 [1, 3]: < 2 µM

FC(F)(F)c1cc2c(Cl)ncnc2n1CCN1CCCCC1 [NUCC-0226679]
GI50 (SF-268; five-dose): 16.2 µM
IC50 (SF-268; five-dose): 30.9 µM
IC (TGI) (SF-268; five-dose): 38.9 µM
CC50 (SF-268; five-dose): 93.3 µM
GI50 (HCT-116; five-dose): 4.9 µM
IC50 (HCT-116; five-dose): 6.03 µM
IC (TGI) (HCT-116; five-dose): 20.4 µM
CC50 (HCT-116; five-dose): 67.6 µM
growth inhibition in the One-Dose Screen (full NCI 60 cell panel): significant growth inhibition
GI50 (SNB-75; five-dose): 10.5 µM
IC50 (SNB-75; five-dose): 22.9 µM
IC (TGI) (SNB-75; five-dose): 22.4 µM
CC50 (SNB-75; five-dose): 47.9 µM
GI50 (OVCAR-8; five-dose): 12.6 µM
IC50 (OVCAR-8; five-dose): 20.4 µM
IC (TGI) (OVCAR-8; five-dose): 33.1 µM
CC50 (OVCAR-8; five-dose): 87.1 µM
GI50 (OVCAR-5; five-dose): 100 µM
IC50 (OVCAR-5; five-dose): 100 µM
IC (TGI) (OVCAR-5; five-dose): 100 µM
CC50 (OVCAR-5; five-dose): ≥ 100 µM
GI50 (DU-145; five-dose): 30.2 µM
IC50 (DU-145; five-dose): 50.1 µM
IC (TGI) (DU-145; five-dose): 100 µM
CC50 (DU-145; five-dose): ≥ 100 µM
GI50 (HT29; HT-29, five-dose): 20.9 µM
IC50 (HT29; HT-29, five-dose): 29.5 µM
IC (TGI) (HT29; HT-29, five-dose): 81.3 µM
CC50 (HT29; HT-29, five-dose, read-out: LC50 (the source's name) (converted)): ≥ 100 µM
GI50 (RXF 393; five-dose): 15.5 µM
IC50 (RXF 393; five-dose): 45.7 µM
IC (TGI) (RXF 393; five-dose): 40.7 µM
CC50 (RXF 393; five-dose): ≥ 100 µM
GI50 (SF-295; five-dose): 22.4 µM
IC50 (SF-295; five-dose): 40.7 µM
IC (TGI) (SF-295; five-dose): 87.1 µM
CC50 (SF-295; five-dose): ≥ 100 µM
GI50 (SNB-19; five-dose): 15.1 µM
IC50 (SNB-19; five-dose): 28.2 µM
IC (TGI) (SNB-19; five-dose): 30.9 µM
CC50 (SNB-19; five-dose): 64.6 µM
GI50 (EKVX; five-dose): 16.2 µM
IC50 (EKVX; five-dose): 51.3 µM
IC (TGI) (EKVX; five-dose): 85.1 µM
CC50 (EKVX; five-dose): ≥ 100 µM
GI50 (UACC-257; five-dose): 11.7 µM
IC50 (UACC-257; five-dose): 25.1 µM
IC (TGI) (UACC-257; five-dose): 30.2 µM
CC50 (UACC-257; five-dose): 77.6 µM
GI50 (UACC-62; five-dose): 12 µM
IC50 (UACC-62; five-dose): 22.4 µM
IC (TGI) (UACC-62; five-dose): 30.2 µM
CC50 (UACC-62; five-dose): 75.9 µM
GI50 (SK-MEL-2; five-dose): 16.6 µM
IC50 (SK-MEL-2; five-dose): 33.9 µM
IC (TGI) (SK-MEL-2; five-dose): 33.1 µM
CC50 (SK-MEL-2; five-dose): 66.1 µM
GI50 (NCI/ADR-RES; five-dose): 24 µM
IC50 (NCI/ADR-RES; five-dose): 42.7 µM
IC (TGI) (NCI/ADR-RES; five-dose): 64.6 µM
CC50 (NCI/ADR-RES; five-dose): ≥ 100 µM
GI50 (SK-OV-3; five-dose): 52.5 µM
IC50 (SK-OV-3; five-dose): 100 µM
IC (TGI) (SK-OV-3; five-dose): 100 µM
CC50 (SK-OV-3; five-dose): ≥ 100 µM
GI50 (KM12; five-dose): 29.5 µM
IC50 (KM12; five-dose): 41.7 µM
IC (TGI) (KM12; five-dose): 100 µM
CC50 (KM12; five-dose): ≥ 100 µM
GI50 (PC-3; five-dose): 15.1 µM
IC50 (PC-3; five-dose): 25.7 µM
IC (TGI) (PC-3; five-dose): 47.9 µM
CC50 (PC-3; five-dose): ≥ 100 µM
IC50 [1, 2]: 0.675 µM
IC50 [1, 3]: < 2 µM
